# Legend:
# Format in all cases: cell-based, Human
# Conditions in all cases: steatosis-induced (OA/PA) Huh-7 cells; 10 μM; 24 hours
# Fgf21 mRNA = assay: qRT-PCR Fgf21 mRNA level in steatosis-induced Huh-7 cells
# Experimental: (§1) In Experimental Example 5, the Huh-7 cells were plated in 6 wells at 4×10^5 cells/mL and incubated under an atmosphere containing 5% CO2 at 37° C.
# (§2) One day later, the cell density approached about 80 to 90%. The medium was changed to an FBS-free RPMI1640 medium, and incubated under an atmosphere containing 5% CO2 at 37° C. for 24 hours.
# (§3) Huh-7 cells of each well, excluding control cells, were pretreated with an OA/PA mixture for one hour to induce steatosis. The control cells were pretreated with 1% FA-free BSA.
# (§4) Each well was treated with 10 μM of a test compound, and then the cells were incubated for 24 hours. The control cells and OA/PA-treated cells were treated with DMSO. Cells of a positive control were treated with 10 μM of resveratrol, 10 μM of piperine, and 10 μM of YU2014. The medium was entirely aspirated, and the cells were washed with PBS (phosphate buffered saline, Corning, Manassas, Va., USA) two times.
# (§5) Total RNA was extracted using a RNeasy RNA isolation kit (Qiagen, Hilden, Germany).
# (§6) 10 μL of β-mercaptoethanol (Sigma-Aldrich) per 1 mL of lysis buffer was added, thereby preparing an RNA lysis buffer. […]
# (§7) An RNA concentration was measured at O.D. 260 nm using a nanophotometer N60 (Implen, Munich, Germany). The concentration and purity of RNA were measured at O.D. 260/280 nm and calculated as a ratio. […]
# (§8) Quantitative analyses for the genes in Table 3 were performed.
# Pparα mRNA = assay: qRT-PCR Pparα mRNA level in steatosis-induced Huh-7 cells
# Experimental: as §1, §2, §3, §4, §5, §6, §7, §8
# Ck2α mRNA = assay: qRT-PCR Ck2α mRNA level in steatosis-induced Huh-7 cells
# Experimental: as §1, §2, §3, §4, §5, §6, §7, §8
# Sirt1 mRNA = assay: qRT-PCR Sirt1 mRNA level in steatosis-induced Huh-7 cells
# Experimental: as §1, §2, §3, §4, §5, §6, §7, §8
SMILES,Fgf21 mRNA level (FIG. 12) (Fgf21 mRNA),Pparα mRNA level (FIG. 10) (Pparα mRNA),Ck2α mRNA level (FIG. 19) (Ck2α mRNA),Sirt1 mRNA level (FIG. 16) (Sirt1 mRNA)
"O=C(/C=C/C=C/c1ccc2c(c1)OCO2)N1CCCCC1 [piperine, Piperine]",no effect,no effect,,
"CCOC(=O)N1CCN(C(=O)/C=C/C=C/c2ccc(SC)cc2)CC1 [R-24, Ethyl 4-((2E,4E)-5-(4-(methylthio)phenyl)penta-2,4-dienoyl)piperazine-1-carboxylate]",,,greatly reduced,
"CCOC(=O)N1CCN(C(=O)/C=C/C=C/c2ccc(OC)cc2)CC1 [R-23, Ethyl 4-((2E,4E)-5-(4-methoxyphenyl)penta-2,4-dienoyl)piperazine-1-carboxylate]",,,,greatly increased
"CCC(=O)N1CCN(C(=O)/C=C/C=C/c2ccc(OC)cc2)CC1 [R-18, (2E,4E)-5-(4-methoxyphenyl)-1-(4-propionylpiperazine-1-yl)penta-2,4-dien-1-one]",,,greatly reduced,greatly increased

# Source: US20200157048A1, “(2E,4E)-5-PHENYL-PENTA-2,4-DIEN-1-ONE DERIVATIVE” (BIOWAY., INC, priority 2018, published 2020)
